Assay results from ChEMBL document CHEMBL1255560, “2-, 3-, and 4-(1-Oxo-1H-2,3-dihydroisoindol-2-yl)benzoic acids and their corresponding organotin carboxylates: synthesis, characterization, fluorescent, and biological activities” (2010).
In brackets after ≈: the same amount, converted by molar mass.

Assays:
Assay type in all cases: functional
Pseudomonas aeruginosa = assay: Antibacterial activity against Pseudomonas aeruginosa by double dilution technique
Candida albicans = assay: Antifungal activity against Candida albicans by double dilution technique
Staphylococcus aureus = assay: Antibacterial activity against Staphylococcus aureus by double dilution technique
Escherichia coli = assay: Antibacterial activity against Escherichia coli by double dilution technique

SMILES	MIC (Pseudomonas aeruginosa) [µg/mL]	MIC (Candida albicans) [µg/mL]	MIC (Staphylococcus aureus) [µg/mL]	MIC (Escherichia coli) [µg/mL]
O=C(O)c1cccc(N2Cc3ccccc3C2=O)c1	0.625 (≈ 2.47 µM)	0.625 (≈ 2.47 µM)	1.25 (≈ 4.94 µM)	0.625 (≈ 2.47 µM)
O=C(O)c1ccccc1N1Cc2ccccc2C1=O	1.25 (≈ 4.94 µM)	1.25 (≈ 4.94 µM)	2.5 (≈ 9.87 µM)	2.5 (≈ 9.87 µM)
O=C(O)c1ccc(N2Cc3ccccc3C2=O)cc1	0.625 (≈ 2.47 µM)	1.25 (≈ 4.94 µM)	1.25 (≈ 4.94 µM)	1.25 (≈ 4.94 µM)
